Laboratory results: patent US6762170B1, “2-(purin-9-yl)-tetrahydrofuran-3,4-diol derivatives” (SmithKlineBeecham Corporation, priority 1998, dated 2004)
Structures can show the parent of a compound that is named as a salt.

Columns and labels:
Assay type in all cases: cell-based
Adenosine 2a receptor = biological target: T1, Adenosine 2a receptor (Homo sapiens, UniProt P29274); experiment: Agonist activity against adenosine 2a receptor subtype (CHO cells, cAMP response element/SPAP reporter); details: EC50 ratio to NECA; transfected CHO cells, basal cAMP reflected by SPAP
T1 construct: expressed in transfected cells; host or cells: Chinese hamster ovary (CHO) cells, co-transfected with a CRE-SPAP reporter
Method: (§1) (1) Agonist Activity Against Adenosine 2a, Adenosine 1 and Adenosine 3 Receptor Subtypes.
(§2) Agonist selectivity of compounds against other human adenosine receptors is determined using Chinese hamster ovary (CHO) cells transfected with the gene for the relevant human adenosine receptor following a method based on that of Castanon and Spevak, 1994. The CHO cells are also transfected with cyclic AMP response elements promoting the gene for secreted placental alkaline phosphatase (SPAP) (Wood, 1995). The effect of test compounds may be determined by their effects on basal levels of cAMP (A2a) or on forskolin-enhanced cAMP (A1 and A3) as reflected by changes in levels of SPAP. EC50 values for compounds may then be determined as a ratio to that of the non-selective agonist N-ethyl carboxamide adenosine (NECA).
(§3) Values given in the Table are EC50 values as a ratio of that of NECA.

Adenosine 1 receptor = biological target: T2, Adenosine 1 receptor (Homo sapiens, UniProt P30542); experiment: Agonist activity against adenosine 1 receptor subtype (CHO cells, forskolin-enhanced cAMP, SPAP reporter); details: EC50 ratio to NECA; transfected CHO cells, forskolin-enhanced cAMP reflected by SPAP
T2 construct: expressed in transfected cells; host or cells: Chinese hamster ovary (CHO) cells, co-transfected with a CRE-SPAP reporter
T2 sequence (P30542 1-326): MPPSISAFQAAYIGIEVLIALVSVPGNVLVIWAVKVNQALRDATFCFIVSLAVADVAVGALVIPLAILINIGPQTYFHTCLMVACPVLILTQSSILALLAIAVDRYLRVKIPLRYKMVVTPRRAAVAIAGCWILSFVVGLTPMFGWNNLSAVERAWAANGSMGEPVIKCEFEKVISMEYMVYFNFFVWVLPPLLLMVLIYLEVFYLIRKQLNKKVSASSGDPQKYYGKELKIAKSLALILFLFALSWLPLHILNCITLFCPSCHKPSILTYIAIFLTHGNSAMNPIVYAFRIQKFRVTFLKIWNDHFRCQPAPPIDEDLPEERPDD
Method: as §1, §2, §3

Adenosine 3 receptor = biological target: T3, Adenosine 3 receptor (Homo sapiens, UniProt P0DMS8); experiment: Agonist activity against adenosine 3 receptor subtype (CHO cells, forskolin-enhanced cAMP, SPAP reporter); details: EC50 ratio to NECA; transfected CHO cells, forskolin-enhanced cAMP reflected by SPAP
T3 construct: expressed in transfected cells; host or cells: Chinese hamster ovary (CHO) cells, co-transfected with a CRE-SPAP reporter
T3 sequence (P0DMS8 1-318): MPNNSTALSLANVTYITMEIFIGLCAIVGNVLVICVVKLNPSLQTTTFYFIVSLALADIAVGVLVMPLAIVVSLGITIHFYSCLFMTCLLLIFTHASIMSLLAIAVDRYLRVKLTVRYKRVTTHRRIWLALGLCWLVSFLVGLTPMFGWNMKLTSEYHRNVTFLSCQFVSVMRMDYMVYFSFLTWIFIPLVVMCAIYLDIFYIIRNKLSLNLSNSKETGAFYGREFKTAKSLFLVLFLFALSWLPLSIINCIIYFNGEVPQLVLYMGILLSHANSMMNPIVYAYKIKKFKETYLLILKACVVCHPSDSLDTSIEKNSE
Method: as §1, §2, §3

T1 sequence (P29274 whole entry): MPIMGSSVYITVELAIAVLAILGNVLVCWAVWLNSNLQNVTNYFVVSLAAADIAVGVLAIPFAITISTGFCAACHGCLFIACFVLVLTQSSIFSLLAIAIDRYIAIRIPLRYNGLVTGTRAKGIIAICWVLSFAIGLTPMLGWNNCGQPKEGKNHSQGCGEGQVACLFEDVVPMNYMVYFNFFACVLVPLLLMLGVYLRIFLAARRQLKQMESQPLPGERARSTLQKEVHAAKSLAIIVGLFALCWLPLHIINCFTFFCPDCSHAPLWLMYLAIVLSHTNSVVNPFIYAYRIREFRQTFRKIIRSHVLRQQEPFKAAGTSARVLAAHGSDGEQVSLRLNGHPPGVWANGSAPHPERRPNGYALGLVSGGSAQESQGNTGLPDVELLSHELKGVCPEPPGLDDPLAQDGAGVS

Compound | A2a (EC50 values as a ratio of that of NECA) (Adenosine 2a receptor) | A1 (EC50 values as a ratio of that of NECA) (Adenosine 1 receptor) | A3 (EC50 values as a ratio of that of NECA) (Adenosine 3 receptor)
CCc1cc(C2OC(n3cnc4c(NC5CCS(=O)(=O)CC5)nc(NCCN5CCCCC5)nc43)C(O)C2O)on1.O=CO.O=CO [Example 31, (2R,3R,4S,5S)-2-[6-(1,1-Dioxo-hexahydro-1λ6-thiopyran-4-ylamino)-2-(2-piperidin-1-yl-ethylamino)-purin-9-yl]-5-(3-ethyl-isoxazol-5-yl)-tetrahydro-furan-3,4-diol diformate] | 10.59 | 577.2 | >310
CCc1cc(C2OC(n3cnc4c(NC5CCS(=O)(=O)CC5)nc(NC5CCC(N)CC5)nc43)C(O)C2O)on1 [Example 32, (2R,3R,4S,5S)-2-[2-trans-4-Amino-cyclohexylamino)-6-(1-dioxo-hexahydro-1λ6-thiopyran-4-ylamino)-purin-9-yl]-5-(3-ethyl-isoxazol-5-yl)-tetrahydro-furan-3,4-diol diformate] | 3.79 | 31.75 | >176
CCc1cc(C2OC(n3cnc4c(NC(CC)CC)nc(NC(CO)Cc5ccccc5)nc43)C(O)C2O)on1 [Example 35, (2S,3S,4R,5R)-2-(3-Ethyl-4-isoxazol-5-yl)-5-[6-(1-ethyl-propylamino)-2-(1S-hydroxymethyl-2-phenyl-ethylamino)-purin-9-yl]-tetrahydro-furan-3,4-diol formate] | 2.53 | 89.16 | >223
CCc1cc(C2OC(n3cnc4c(NC(CC)CC)nc(NC5CCNC5)nc43)C(O)C2O)on1 [Example 36, (2S,3S,4R,5R)-2-(3-Ethyl-isoxazol-5-yl)-5-[6-(1(-ethyl-propylamino)-2-(pyrrolidin-3R-ylamino)-purin-9-yl]-tetrahydro-furan-3,4-diol diformate] | 4.7 | 68.32 | >207
CCc1cc(C2OC(n3cnc4c(NC(CC)CC)nc(NCCc5ccccn5)nc43)C(O)C2O)on1 [Example 37, (2S,3S,4R,5R)-2-(3-Ethyl-isoxazol-5-yl)-5-[61-ethyl-propylamino)-2-(2-pyridin-2-yl-ethylamino)-purin-9-yl]-tetrahydro-furan-3,4-diol diformate] | 2.65 | 136.56 | >207
CCc1cc(C2OC(n3cnc4c(NC(CC)CC)nc(NCCN5CCOCC5)nc43)C(O)C2O)on1.O=CO.O=CO [Example 38, (2S,3S,4R,5R)-2-(3Ethyl-isoxazol-5-yl)-5-[6(1-ethyl-propylamino)-2-(2-morpholin-4-yl-ethylamino)-purin-9-yl]-tetrahydro-furan-3,4-diol diformate] | 5.29 | 44.1 | >737
CCc1cc(C2OC(n3cnc4c(NC(CC)CC)nc(NC5CCC(N)CC5)nc43)C(O)C2O)on1.O=CO.O=CO [Example 39, (2R,3R,4S,5S)-2-[2(trans-4-Amino-cyclohexylamino)-6(1-ethyl-propylamino)-purin-9-yl]-5-(3-ethyl-isoxazol-5-yl)-tetrahydro-furan-3,4-diol diformate] | 2.12 | 86.8 | >85
CCc1cc(C2OC(n3cnc4c(NC(CC)CC)nc(NCCNC(=N)N)nc43)C(O)C2O)on1 (stereo not drawn) [Example 40, N-{2-[9-[5S-(3-Ethyl-isoxazol-5-yl)-3R,4S-dihydroxy-tetrahydro-furan-2R-yl]6-(1-ethyl-propylamino)-9H-purin-2-ylamino]-ethyl}-guanidine diformate] | 3.38 | 70.53 | >88
CCc1cc([C@H]2O[C@@H](n3cnc4c(NCCC(C)(C)C)nc(NCCN5CCCCC5)nc43)[C@H](O)[C@@H]2O)on1.O=CO.O=CO [Example 41, (2R,3R,4S,5S)-2-[6-(3,3-Dimethyl-butylamino)-2-(2-piperidin-1-yl-ethylamino)-purin-9-yl]-5-(3-ethyl-isoxazol-5-yl)-tetrahydro-furan-3,4-diol diformate] | 27.39 | 2907.96 | >395
CCc1cc(C2OC(n3cnc4c(NCCC(C)(C)C)nc(NCCN5CCOCC5)nc43)C(O)C2O)on1 [Example 42, (2R,3R,4S,5S)-2-[6-(3,3-Dimethyl-butylamino)-2-(2-morpholin-4-ethylamino)-purin-9-yl]-5-(3-ethyl-isoxazol-5-yl)-tetrahydro-furan-3,4-diol diformate]] | 41.06 | 1369.08 | >395
CCc1cc(C2OC(n3cnc4c(NCc5ccccc5)nc(NCCc5cn(C)cn5)nc43)C(O)C2O)on1 [Example 43, (2R,3R,4S,5S)-2-{6-Benzylamino-2-[2-(1-methyl-1H-imidazol-1-yl)-ethylamino]-purin-9-yl}-5-(3-ethyl-isoxazol-5-yl)-tetrahydro-furan-3,4-diol diformate] | 3.53 | 672.4 | >335
CCc1cc(C2OC(n3cnc4c(NCc5ccccc5)nc(NCCN5CCCCC5)nc43)C(O)C2O)on1.O=CO.O=CO [Example 44, (2R,3R,4S,5S)-2-[6-Benzylamino-2-(2-piperidin-1-yl-ethylamino)-purin-9-yl]-5-(3-ethyl-isoxazol-5-yl)-tetrahydro-furan-3,4-diol diformate] | 10.3 | 725.4 | >221
CCc1cc(C2OC(n3cnc4c(NC(CO)Cc5ccccc5)nc(NCCN5CCCCC5)nc43)C(O)C2O)on1 [Example 45, (2S,3S,4R,5R)-2-(3-Ethyl-isoxazol-5-yl)-5-[6-(1S-hydroxymethyl-2-phenyl-ethylamino)-2-(2-piperidin-1-yl-ethylamino)-purin-9-yl]-tetrahydro-furan-3,4-diol diformate] | 1.93 | 54.04 | >189
CCc1cc([C@H]2O[C@@H](n3cnc4c(NC(CC)CC)nc(NC5CCCC5)nc43)[C@H](O)[C@@H]2O)on1.O=CO [Example 46, (2R,3R,4S,5S)-2-[2-(Cyclopentylamino)-6-(1-ethyl-propylamino)-purin-9-yl]-5-(3-ethyl-isoxazol-5-yl)-tetrahydro-furan-3,4-diol formate] | 20.06 | 148.72 | >518
CCc1cc([C@H]2O[C@@H](n3cnc4c(NC(CC)CC)nc(NC5CCOCC5)nc43)[C@H](O)[C@@H]2O)on1.O=CO [Example 48, (2R,3R,4S,5S)-2-[2-(4-tetrahydropyranyl-amino)-6-(1-ethyl-propylamino)-purin-9-yl]-5-(3-ethyl-isoxazol-5-yl)-tetrahydro-furan-3,4-diol formate] | 11.48 | 177.71 | >363
